Reference: ChEMBL document CHEMBL1151922, “Structure-activity relationships of 3,5-disubstituted benzamides as glucokinase activators with potent in vivo efficacy” (Bioorg Med Chem, 2009)

Key:
[1] = biological target: T1, Hexokinase-4 (Homo sapiens, UniProt P35557); test: Activation of flag-tagged human recombinant liver glucokinase expressed in Escherichia coli by glucose-6-phosphate dehydrogenase coupled continuous spectrophotometric assay in presence of 10 mM glucose
T1 sequence (P35557 whole entry): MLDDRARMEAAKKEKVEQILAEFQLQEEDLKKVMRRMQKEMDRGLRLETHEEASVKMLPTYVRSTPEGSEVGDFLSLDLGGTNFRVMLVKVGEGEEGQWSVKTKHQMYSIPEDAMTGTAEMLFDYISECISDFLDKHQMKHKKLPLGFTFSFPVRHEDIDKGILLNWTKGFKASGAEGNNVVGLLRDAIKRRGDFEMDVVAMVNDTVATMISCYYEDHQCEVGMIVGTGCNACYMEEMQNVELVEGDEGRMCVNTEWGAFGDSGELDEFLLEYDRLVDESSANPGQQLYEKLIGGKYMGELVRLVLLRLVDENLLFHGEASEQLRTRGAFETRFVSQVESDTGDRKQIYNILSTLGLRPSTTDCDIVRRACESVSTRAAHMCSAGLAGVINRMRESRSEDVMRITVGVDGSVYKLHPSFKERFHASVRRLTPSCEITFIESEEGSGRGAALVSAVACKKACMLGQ

[2] = biological target: T1, Hexokinase-4; test: Activation of flag-tagged human recombinant liver glucokinase expressed in Escherichia coli by glucose-6-phosphate dehydrogenase coupled continuous spectrophotometric assay in presence of 2.5 mM glucose
[3] = Octanol-water distribution coefficient, log D at pH 7.4 by HPLC-MS analysis

Compound	EC50 [1] [nM]	EC50 [2] [nM]	logD [3]
CS(=O)(=O)c1ccc(Oc2cc(O[C@H]3CCC[C@@H]3O)cc(C(=O)Nc3nccs3)c2)cc1 (stereo in doubt)	170	280	–
CS(=O)(=O)c1ccc(Oc2cc(O[C@H]3CCOC3)cc(C(=O)Nc3nccs3)c2)cc1	50	190	–
CN1CCC(Oc2cc(Oc3ccc(S(C)(=O)=O)cc3)cc(C(=O)Nc3nccs3)c2)C1 (racemic)	7300	24000	–
CS(=O)(=O)c1ccc(Oc2cc(O[C@H]3CCC[C@@H]3O)cc(C(=O)Nc3nccs3)c2)cc1 (stereo in doubt; 6j)	90	160	–
Cn1cnnc1Sc1ccc(N)c(C(=O)Nc2nccs2)c1	140	420	–
CS(=O)(=O)c1ccc(Oc2cc(O[C@@H]3CCC[C@H]3O)cc(C(=O)Nc3nccs3)c2)cc1	1600	3700	–
CC(CCO)Oc1cc(Oc2ccc(S(C)(=O)=O)cc2)cc(C(=O)Nc2nccs2)c1 (racemic)	60	150	3.4
CS(=O)(=O)c1ccc(Oc2cc(OC3CCOC3)cc(C(=O)Nc3nccs3)c2)cc1 (racemic)	–	–	4.2

Next, values leading:

EC50 [1] [nM]	EC50 [2] [nM]	logD [3]	Compound
4200	18000	–	CS(=O)(=O)c1ccc(Oc2cc(OC3CCNC3)cc(C(=O)Nc3nccs3)c2)cc1 (racemic)
210	1500	1.1	CC(CN)Oc1cc(Oc2ccc(S(C)(=O)=O)cc2)cc(C(=O)Nc2nccs2)c1 (racemic)
250	750	3.4	CC(CO)Cc1cc(Oc2ccc(S(C)(=O)=O)cc2)cc(C(=O)Nc2nccs2)c1 (racemic)
200	780	2.4	CS(=O)(=O)c1ccc(Oc2cc(OCCO)cc(C(=O)Nc3nccs3)c2)cc1
240	790	> 4	CS(=O)(=O)c1ccc(Oc2cc(OC(CO)C(F)(F)F)cc(C(=O)Nc3nccs3)c2)cc1 (racemic)
200	360	> 4	CC(C)C(CO)Oc1cc(Oc2ccc(S(C)(=O)=O)cc2)cc(C(=O)Nc2nccs2)c1 (racemic)
